Data taken from PMC11099041, “Tissue distribution and retention drives efficacy of rapidly clearing VHL-based PROTACs” (Communications Medicine, 2024).
Where two headings read alike, the source gives them in different places.

Assays:
[1] = Protein binding by equilibrium dialysis (plasma, tissue homogenates, DPBS); format: in vitro ADME, rat; conditions: rat, plasma
Procedure: Control plasma was purchased from BioIVT, Hicksville, New York. Pooled plasma was obtained from at least three rats with K2EDTA as the anticoagulant. Control plasma was used to test the suitability of the system and for positive control analysis. Dulbecco’s phosphate-buffered saline (DPBS) (Millipore Sigma, St Louis, Missouri) was used to test the suitability of the system and as the receiver side of the dialysis device. […] The stock solution was added to the matrix (plasma or DPBS) and swirled to mix. The fortified matrix was then incubated at 37 °C for 15 min. Triplicate aliquots of the fortified matrix were analyzed by LSC.
The high throughput dialysis apparatus, model HTD96b, was used (HTDialysis LLC, Gales Ferry, Connecticut). Prior to assembly, dialysis membrane strips (molecular weight cutoff of 6–8 kDa) were hydrated, and the Teflon bars were assembled according to manufacturer’s instructions, with dialysis membrane strips laid between bars creating two compartments per well. The assembled unit was locked in place in the steel base plate. A 150 µL aliquot of each fortified matrix (tissue homogenates, plasma, or DPBS) and DPBS were added to the donor and receiver side of the HTD wells in a Teflon plate, respectively, and the plate was sealed. Samples were incubated at 37 °C and rotated at 300 rpm for 7 hours. After incubation, the seal was removed, and tissue homogenates, plasma, or DPBS and dialysate from each device insert were analyzed by LSC. All protein binding determinations were performed in triplicate.
Dialysis was performed accordingly. The radioactivity concentration of the test article in the donor and receiver samples was determined by LSC (count time 60 min) for the calculation of protein binding. […] After the designated time, aliquots of the individual donor and receiver samples were removed and analyzed by LSC. The remaining sample volume was stored at −20 °C.
Dialysis was performed accordingly.
Protein binding by equilibrium dialysis:1 PercentDrugBound=(Cm-Cd)/Cm×100 2 PercentDrugUnbound=100-PercentBound where: Cd, concentration of test article in dialysate at equilibrium; Cm, Concentration of test article in matrix at equilibrium.
Recovery from equilibrium dialysis:3 Recovery(%)=(Cm×Vm)+(Cd×Vd)/(Co×Vo)×100 where: Cm, Concentration of test article in matrix at equilibrium; Cd, Concentration of test article in dialysate at equilibrium; Co, Original concentration of test article in matrix prior to loading the dialysis device; Vm, Nominal volume of the matrix at equilibrium; Vd, Nominal volume of the dialysate at equilibrium; Vo, Nominal volume of the original matrix added to the dialysis device.

[2] = In vitro metabolism in rat hepatocytes; conditions: 5 µM A947, 3 hr
[3] = In vitro metabolism in human hepatocytes; conditions: human hepatocytes, 5 µM A947, 3 hr
[4] = Metabolite profiling in rat bile, urine and feces (radio-HPLC, LC-HRMS); format: in vivo; conditions: for %rad in feces: pooled feces
Procedure: Tissue homogenate samples at 24 hours were extracted as plasma samples. […] The pooled urine samples containing 10% MeOH were analyzed by liquid chromatography-high resolution mass spectrometry (LC-HRMS).
The pooled bile sample containing 10% MeOH was analyzed by LC-HRMS.
Feces samples obtained from BDC and intact rats were pooled separately across time intervals for each animal (5% w/v) and further pooled across animals for each group to generate a 0–68 hour pooled sample. Approximately 1–2 g of each pooled feces sample was extracted as the same protocol used for plasma samples. […] The reconstituted samples were analyzed by LC-HRMS.
The reconstituted samples were analyzed by LC-HRMS, with eluent fractions collected at 10-second intervals into 96-well plates containing solid scintillant. Radioactivity in each well was determined using TopCount analysis, and radiochemical profiles were generated based on radioactivity counts. Structural elucidation was performed based on mass spectral interpretation to identify metabolites.
For metabolite profiling and identification, LC-MS analysis used a Shimadzu/Nexera LC-30 AD liquid chromatographic system and a ThermoFisher Scientific Q Exactive with a positive/negative heated electrospray interface. The column was a Waters XSelect HSS T3 4.6 mm × 250 mm, 3.5 µm and maintained at 40 °C. The mobile phases were (A) 20 mM ammonium acetate in water and (B) acetonitrile. […] The flow was 1 mL/min and split 20% to mass analysis and 80% collected for radioactivity counting. Mass spectrometry data was acquired with full scans at a resolution of 70,000 for a m/z range of 300 to 1500, and MS/MS scans were acquired at a resolution of 17,500. The mass spectrometer was operated with a normalized collision energy of 30 (ESI+), S-Lens RF level of 60, source voltage of +3.5 kV, Capillary temperature of 320 °C, and Probe heater temperature of 300 °C.

[5] = human, 3 h, 5 µM
[6] = male, Wistar Han, rat, 3 h, 5 µM
[7] = IV 4 mg/kg, pooled 0–168-hour bile
[8] = Sprague Dawley, in vivo, iv, 4 mg/kg

In the case of CC(=O)CC(c1ccccc1)c1c(O)c2ccccc2oc1=O (stereo not drawn) [14C-warfarin, warfarin, reference compound], the “Percent Unbound” value ([1]; 7 h, 3000 ng/mL) is reported as “approximately 1.5%”, the fraction unbound at 7 h, 3000 ng/mL ([1]; Fu) is reported as 0.015 and the fraction unbound at 7 h, 3000 ng/mL ([1]; Percent Unbound) is reported as 0.0146.

In the case of Cc1ncsc1-c1ccc(C(C)NC(=O)C2CC(O)CN2C(=O)C(c2cc(N3CCC(C(=O)O)CC3)no2)C(C)C)cc1 (stereo not drawn) [M3], the “Estimated relative distribution percent of mass spectral abundance” value (from here on “Estimated relative distribution percent”) [2] is reported as 0.2% and the “Estimated relative distribution percent” value [3] is reported as 0.04%.

With Nc1nnc(-c2ccccc2O)cc1N1CC2CCC(C1)N2c1ccnc(O)c1 [M5] the “%Rad in bile” value [4, 7] was 1.49%, the “%rad in feces” value ([4]; IV 4 mg/kg) was 1.86% and the “%rad in urine” value ([4]; IV 4 mg/kg, pooled urine) was 7.53%. For the same molecule, the “Estimated relative distribution percent” value [5] was 0.1%.

With CC(C)C(C(=O)N1CC(O)CC1C(=O)O)c1cc(N2CCC(CN3CCC(OC4CC(Oc5cc(N6C7CCC6CN(c6cc(-c8ccccc8O)nnc6N)C7)ccn5)C4)CC3)CC2)no1 (stereo not drawn) [M8] the “%Rad in bile” value [4, 8] was 3.47%.

In the case of CC(C)C(C(=O)O)c1cc(N2CCC(CN3CCC(OC4CC(Oc5cc(N6C7CCC6CN(c6cc(-c8ccccc8O)nnc6N)C7)ccn5)C4)CC3)CC2)no1 (stereo not drawn) [M9], the “%Rad in bile” value [4, 8] is reported as 3.08%.

For Nc1nnc(-c2ccccc2O)cc1N1CC2CCC(C1)N2c1ccnc(OC2CC(OC3CCNCC3)C2)c1 (stereo not drawn) [M10], the “%Rad in bile” value [4, 7] was 4.48%, the “Estimated relative distribution percent” value [5] was 2.6% and the “Estimated relative distribution percent” value [6] was 2.2%.

For Nc1nnc(-c2ccccc2O)cc1N1CC2CCC(C1)N2c1ccnc(OC2CC(O)C2)c1 (stereo not drawn) [M11], the “%Rad in bile” value [4, 7] was 2.79%, the “%rad in feces” value ([4]; IV 4 mg/kg) was 4.34% and the “%rad in urine” value ([4]; IV 4 mg/kg, pooled urine) was 2.93%. The “Estimated relative distribution percent” value [5] was 0.8% and the “Estimated relative distribution percent” value [6] was 0.8%.

For Cc1ncsc1-c1ccc(C(C)NC(=O)C2CC(OC3OC(C(=O)O)C(O)C(O)C3O)CN2C(=O)C(c2cc(N3CCC(CN4CCC(OC5CC(Oc6cc(N7C8CCC7CN(c7cc(-c9ccccc9OC9OC(C(=O)O)C(O)C(O)C9O)nnc7N)C8)ccn6)C5)CC4)CC3)no2)C(C)C)cc1 (stereo not drawn) [M17], the “%rad in urine” value [4, 8] was 21.86%.

With Nc1nnc(-c2ccccc2O)cc1N1CC2CCC(C1)N2c1ccnc(OC2CC(OC3CCN(C=O)CC3)C2)c1 (stereo not drawn) [M18] the “%Rad in bile” value [4, 8] was 6.31%.
